Data: patent publication US20100311683A1, “CYTIDINE ANALOGS FOR TREATMENT OF MYELODYSPLASTIC SYNDROMES” (priority 2007, published 2010)
Read-outs that look alike come from different tables or passages of the source.

Tested on: MDS patients
Settings: for Grade 3/4 AE: Anemia / Grade 3/4 AE: Candida Sepsis / Grade 3/4 AE: Cellulitis / Grade 3/4 AE: Epistaxis / Grade 3/4 AE: Febrile neutropenia / Grade 3/4 AE: GI hemorrhage / Grade 3/4 AE: Hematologic Disorders / Grade 3/4 AE: Hemorrhagic Events / Grade 3/4 AE: Hemorrhagic anemia / Grade 3/4 AE: Infections / Grade 3/4 AE: Leukopenia / Grade 3/4 AE: Neutropenia / Grade 3/4 AE: Pneumonia / Grade 3/4 AE: Rectal hemorrhage / Grade 3/4 AE: Thrombocytopenia / Grade 3/4 AE: Urinary tract infection / Grade 3/4 AE: ≥1 Adverse Event: N=50

Nc1ncn([C@@H]2O[C@H](CO)[C@@H](O)[C@H]2O)c(=O)n1 [azacitidine, 4-amino-1-β-D-ribofuranosyl-1,3,5-triazin-2(1H)-one]
FAB low-risk patients RBC transfusion independent at baseline who remained independent during the study (AZA 5 (75 mg/m2/d x5d)): 64%
RBC transfusion-dependent patients who achieved and retained independence at the end of cycle 6 (AZA 5 (75 mg/m2/d x5d)): 63%
evaluable patients RBC transfusion independent at baseline who remained independent during the study (AZA 5 (75 mg/m2/d x5d)): 68%
mean duration of RBC transfusion independence (AZA 5 (75 mg/m2/d x5d)): 109 days
onset of HI within the first 3 cycles (AZA 5 (75 mg/m2/d x5d)): 96%
patients with at least 1 treatment-emergent AE that led to study discontinuation (AZA 5 (75 mg/m2/d x5d)): 14%
patients with bilineage HI (AZA 5 (75 mg/m2/d x5d)): 10%
patients with serious AEs (AZA 5 (75 mg/m2/d x5d)): 30%
Any HI (major and minor) (AZA 5 (75 mg/m2/d x5d), N=49): 27 (55) [40, 69] %
Erythroid Major HI (IWG 2000), evaluable patients (AZA 5 (75 mg/m2/d x5d), N=49): 18 (37) [23, 52] %
Erythroid Minor HI (AZA 5 (75 mg/m2/d x5d), N=49): 1 (2) [0.1, 11] %
Neutrophil Major HI (AZA 5 (75 mg/m2/d x5d), N=49): 4 (8) [40, 100] %
Neutrophil Minor HI (AZA 5 (75 mg/m2/d x5d), N=49): 2 (4) [0.5, 14] %
Platelet Major HI (AZA 5 (75 mg/m2/d x5d), N=49): 9 (18) [9, 32] %
Platelet Minor HI (AZA 5 (75 mg/m2/d x5d), N=49): 2 (4) [0.5, 14] %
Grade 3/4 AE: Anemia (AZA 5 (75 mg/m2/d x5d)): 5 (10) %
Grade 3/4 AE: Candida Sepsis (AZA 5 (75 mg/m2/d x5d)): 1 (2) %
Grade 3/4 AE: Cellulitis (AZA 5 (75 mg/m2/d x5d)): 1 (2) %
Grade 3/4 AE: Epistaxis (AZA 5 (75 mg/m2/d x5d)): 0%
Grade 3/4 AE: Febrile neutropenia (AZA 5 (75 mg/m2/d x5d)): 1 (2) %
Grade 3/4 AE: GI hemorrhage (AZA 5 (75 mg/m2/d x5d)): 0%
Grade 3/4 AE: Hematologic Disorders (AZA 5 (75 mg/m2/d x5d)): 17 (34) %
Grade 3/4 AE: Hemorrhagic Events (AZA 5 (75 mg/m2/d x5d)): 1 (2) %
Grade 3/4 AE: Hemorrhagic anemia (AZA 5 (75 mg/m2/d x5d)): 1 n (%)
Grade 3/4 AE: Infections (AZA 5 (75 mg/m2/d x5d)): 5 (10) %
Grade 3/4 AE: Leukopenia (AZA 5 (75 mg/m2/d x5d)): 4 (8) %
Grade 3/4 AE: Neutropenia (AZA 5 (75 mg/m2/d x5d)): 11 (22) %
Grade 3/4 AE: Pneumonia (AZA 5 (75 mg/m2/d x5d)): 1 (2) %
Grade 3/4 AE: Rectal hemorrhage (AZA 5 (75 mg/m2/d x5d)): 0%
Grade 3/4 AE: Thrombocytopenia (AZA 5 (75 mg/m2/d x5d)): 6 (12) %
Grade 3/4 AE: Urinary tract infection (AZA 5 (75 mg/m2/d x5d)): 0%
Grade 3/4 AE: ≥1 Adverse Event (AZA 5 (75 mg/m2/d x5d)): 29 (58) %
onset of IWG-defined HI in Cycle 1 (AZA 5 (75 mg/m2/d x5d), n=28): 15 (54) %
onset of IWG-defined HI in Cycle 2 (AZA 5 (75 mg/m2/d x5d), n=28): 10 (36) %
onset of IWG-defined HI in Cycle 3 (AZA 5 (75 mg/m2/d x5d), n=28): 2 (7) %
onset of IWG-defined HI in Cycle 4 (AZA 5 (75 mg/m2/d x5d), n=28): 1 (4) %
onset of IWG-defined HI in Cycle 5 (AZA 5 (75 mg/m2/d x5d), n=28): 0%
onset of IWG-defined HI in Cycle 6 (AZA 5 (75 mg/m2/d x5d), n=28): 0%
FAB low-risk patients RBC transfusion independent at baseline who remained independent during the study (AZA 5-2-2 (75 mg/m2/d)): 75%
RBC transfusion-dependent patients who achieved and retained independence at the end of cycle 6 (AZA 5-2-2 (75 mg/m2/d)): 100%
evaluable patients RBC transfusion independent at baseline who remained independent during the study (AZA 5-2-2 (75 mg/m2/d)): 67%
mean duration of RBC transfusion independence (AZA 5-2-2 (75 mg/m2/d)): 135 days
onset of HI within the first 3 cycles (AZA 5-2-2 (75 mg/m2/d)): 87%
patients with at least 1 treatment-emergent AE that led to study discontinuation (AZA 5-2-2 (75 mg/m2/d)): 18%
patients with bilineage HI (AZA 5-2-2 (75 mg/m2/d)): 11%
patients with serious AEs (AZA 5-2-2 (75 mg/m2/d)): 54%
Any HI (major and minor) (AZA 5-2-2 (75 mg/m2/d), N=46): 20 (44) [29, 59] %
Erythroid Major HI (IWG 2000), evaluable patients (AZA 5-2-2 (75 mg/m2/d), N=46): 15 (33) [20, 48] %
Erythroid Minor HI (AZA 5-2-2 (75 mg/m2/d), N=46): 1 (2) [0.1, 12] %
Neutrophil Major HI (AZA 5-2-2 (75 mg/m2/d), N=46): 3 (7) [29, 100] %
Neutrophil Minor HI (AZA 5-2-2 (75 mg/m2/d), N=46): 0 [0, 8] %
Platelet Major HI (AZA 5-2-2 (75 mg/m2/d), N=46): 10 (22) [11, 36] %
Platelet Minor HI (AZA 5-2-2 (75 mg/m2/d), N=46): 0 [0, 8] %
Grade 3/4 AE: Anemia (AZA 5-2-2 (75 mg/m2/d)): 12 (24) %
Grade 3/4 AE: Candida Sepsis (AZA 5-2-2 (75 mg/m2/d)): 0%
Grade 3/4 AE: Cellulitis (AZA 5-2-2 (75 mg/m2/d)): 2 (4) %
Grade 3/4 AE: Epistaxis (AZA 5-2-2 (75 mg/m2/d)): 1 (2) %
Grade 3/4 AE: Febrile neutropenia (AZA 5-2-2 (75 mg/m2/d)): 4 (8) %
Grade 3/4 AE: GI hemorrhage (AZA 5-2-2 (75 mg/m2/d)): 1 (2) %
Grade 3/4 AE: Hematologic Disorders (AZA 5-2-2 (75 mg/m2/d)): 33 (66) %
Grade 3/4 AE: Hemorrhagic Events (AZA 5-2-2 (75 mg/m2/d)): 4 (8) %
Grade 3/4 AE: Hemorrhagic anemia (AZA 5-2-2 (75 mg/m2/d)): 0 n (%)
Grade 3/4 AE: Infections (AZA 5-2-2 (75 mg/m2/d)): 11 (22) %
Grade 3/4 AE: Leukopenia (AZA 5-2-2 (75 mg/m2/d)): 7 (14) %
Grade 3/4 AE: Neutropenia (AZA 5-2-2 (75 mg/m2/d)): 21 (42) %
Grade 3/4 AE: Pneumonia (AZA 5-2-2 (75 mg/m2/d)): 0%
Grade 3/4 AE: Rectal hemorrhage (AZA 5-2-2 (75 mg/m2/d)): 0%
Grade 3/4 AE: Thrombocytopenia (AZA 5-2-2 (75 mg/m2/d)): 13 (26) %
Grade 3/4 AE: Urinary tract infection (AZA 5-2-2 (75 mg/m2/d)): 0%
Grade 3/4 AE: ≥1 Adverse Event (AZA 5-2-2 (75 mg/m2/d)): 42 (84) %
onset of IWG-defined HI in Cycle 1 (AZA 5-2-2 (75 mg/m2/d), n=22): 9 (41) %
onset of IWG-defined HI in Cycle 2 (AZA 5-2-2 (75 mg/m2/d), n=22): 9 (41) %
onset of IWG-defined HI in Cycle 3 (AZA 5-2-2 (75 mg/m2/d), n=22): 1 (5) %
onset of IWG-defined HI in Cycle 4 (AZA 5-2-2 (75 mg/m2/d), n=22): 0%
onset of IWG-defined HI in Cycle 5 (AZA 5-2-2 (75 mg/m2/d), n=22): 2 (9) %
onset of IWG-defined HI in Cycle 6 (AZA 5-2-2 (75 mg/m2/d), n=22): 1 (5) %
FAB low-risk patients RBC transfusion independent at baseline who remained independent during the study (AZA 5-2-5 (50 mg/m2/d)): 80%
RBC transfusion-dependent patients who achieved and retained independence at the end of cycle 6 (AZA 5-2-5 (50 mg/m2/d)): 92%
evaluable patients RBC transfusion independent at baseline who remained independent during the study (AZA 5-2-5 (50 mg/m2/d)): 79%
mean duration of RBC transfusion independence (AZA 5-2-5 (50 mg/m2/d)): 138 days
onset of HI within the first 3 cycles (AZA 5-2-5 (50 mg/m2/d)): 88%
